Values joined by “and” are separate entries in the source; they are usually repeats but may differ in a detail not shown here. Identical values can stand only once.

The values that follow come from patent US20190099401A1, “METHOD FOR PROTECTING CORNEAL ENDOTHELIAL CELLS FROM THE IMPACT CAUSED BY AN EYE SURGERY” (priority 2017, published 2019).

In data set [1] the test system is corneal endothelial cell line (B4G12). The data set is described as follows: Cell experiment: paraquat-induced apoptosis, cell morphology. The data set is classed as cell-based. Conditions: for cell morphology (apoptosis, vesicle formation) / cell morphology (protective effect): FIG. 1. How it is done:
(§1) In the present embodiment, retinal pigment epithelial cell line (ARPE19) and corneal endothelial cell line (B4G12) were subjected to the cell experiment. The B4G12 cells were cultured with the cell culture medium comprising Human Endothelial-SFM, 2% of fetal bovine serum (FBS), and 10 ng/ml of basic fibroblast growth factor (bFGF). The culture medium was changed every two days. The ARPE 19 cells were cultured with the cell culture medium comprising Dulbecco's Modified Eagle Medium Nutrient Mixture F-12 (DMEM-F12), 10% of FBS, 0.5% of ampicillin, and 0.125% of gentamycin. The culture medium was changed every two days.
(§2) 2 mM of paraquat was added to the culture medium of the ARPE19 cells, and 0.2 mM of paraquat was added to the culture medium of the B4G12 cells to induce apoptosis of the cells. 0.1, 0.5, 1.0, and 2.0 mM of ascorbic acid were then added respectively to the culture medium of the cells for 5 days and the cell morphologies thereof were shown in FIG. 1. […] Accordingly, the lowest effective concentration of ascorbic acid is 1.0 mM.
(§3) Further, ARPE19 cells and B4G12 cells were divided respectively into four groups, which comprises a control group 1 without added ascorbic acid or paraquat; a control group 2 added with ascorbic acid but without paraquat; a comparative group added with paraquat but without ascorbic acid; and a treatment group added with ascorbic acid and paraquat, wherein 1 mM of ascorbic acid were added to the control groups 2 and treatment groups, 2 mM of paraquat were added to the comparative group and the treatment group of ARPE19 cells, and 0.2 mM of paraquat were added to the comparative group and the treatment group of B4G12 cells.

Data set [2] deals with retinal pigment epithelial cell line (ARPE19). Described as above. To be noted: for cell morphology (apoptosis, vesicle formation) / cell morphology (protective effect): FIG. 1. In kind it is cell-based. How it is done:
as §1, §2, §3

For another data set, the system named is ARPE19 cells. The data set is described as follows: Oxidative stress test (cellular ROS detection assay kit). Conditions: after 5 days of culturing, FIG. 3. The data set is classed as cell-based. How it is done:
(§4) The oxidative stress of ARPE19 and B4G12 cells were tested using cellular ROS detection assay kit (Deep Red Fluorescence, ab186029) after 5 days of culturing. The tested groups were the same as the abovementioned control group 1, control group 2, comparative group, and treatment group. The test results were shown in FIG. 3, wherein the red fluorescent light represented the existence of oxidative stress.

The next data set concerns B4G12 cells. The description is as above. The data set is classed as cell-based. Conditions: after 5 days of culturing, FIG. 3. As for the experimental part:
as §4

Data set [3] concerns corneal endothelial cells. The data set is described as follows: Phacoemulsification in patients with low corneal endothelial cell density. The data set is classed as in vivo. To be noted: 28 days four times a day before phacoemulsification, one patient eye. The source says: Please refer to the following Table. 1 showing the age and sex of the patients, concentration of ascorbic acid in the ophthalmic composition, cause of low corneal endothelial cell density (ECD), total energy of phacoemulsification, duration time of phacoemulsification, corneal endothelial cell density before and after the phacoemulsification, and the percentage of cell loss. […] The ratio of cell loss after may be down regulated to 6.2±1.9%.

[4] abbreviates: control group 2: 1 mM ascorbic acid without paraquat, FIG. 2.
Setting [5] is: 1 mM ascorbic acid without paraquat.

For the compound `O=C1O[C@H]([C@@H](O)CO)C(O)=C1O` [ascorbic acid], the “cell morphology (apoptosis, vesicle formation)” value in data set [1] (0.1 mM ascorbic acid, 0.2 mM paraquat, 5 days) was “showed cell apoptosis and vesicle formation”; in data set [1] (0.5 mM ascorbic acid, 0.2 mM paraquat, 5 days), “showed cell apoptosis and vesicle formation”; in data set [2] (0.1 mM ascorbic acid, 2 mM paraquat, 5 days), “showed cell apoptosis and vesicle formation”; in data set [2] (0.5 mM ascorbic acid, 2 mM paraquat, 5 days), “showed cell apoptosis and vesicle formation”. In addition, the lowest effective concentration in data set [1] (0.2 mM paraquat, 5 days) is listed as 1.0 mM; in data set [2] (2 mM paraquat, 5 days), 1.0 mM. The “cell morphology (protective effect)” value in data set [1] (1.0 mM ascorbic acid, 0.2 mM paraquat, 5 days) is reported as “showed the protective effect for the cells”; in data set [1] (2.0 mM ascorbic acid, 0.2 mM paraquat, 5 days), “showed the protective effect for the cells”; in data set [2] (1.0 mM ascorbic acid, 2 mM paraquat, 5 days), “showed the protective effect for the cells”; in data set [2] (2.0 mM ascorbic acid, 2 mM paraquat, 5 days), “showed the protective effect for the cells”. Also, the cell vesicles result in data set [1] (control group 2: 1 mM ascorbic acid without paraquat (same in control group 1), FIG. 2) is recorded as “only some cell vesicles were generated”. In addition, the cell apoptosis entry in data set [1] (setting [4]) and in data set [2] (setting [4]) was “did not show significant cell apoptosis” each time. The “cell apoptosis and cell vesicle generation” value in data set [1] (treatment group: 1 mM ascorbic acid + 0.2 mM paraquat, FIG. 2) is “cell apoptosis and cell vesicle generation were not significant”; in data set [2] (treatment group: 1 mM ascorbic acid + 2 mM paraquat, FIG. 2) it was “cell apoptosis and cell vesicle generation were not significant”. Further, the “oxidative stress (red fluorescence, ROS)” value in the data set on ARPE19 cells (1 mM ascorbic acid + 2 mM paraquat) is “sufficiently decrease the oxidative stress caused by paraquat”; in the data set with ARPE19 cells (setting [5]), “did not increase significantly”; in the data set on B4G12 cells (1 mM ascorbic acid + 0.2 mM paraquat), “sufficiently decrease the oxidative stress caused by paraquat”; in the data set with B4G12 cells (setting [5]) it was “did not increase significantly”. The Cell lost was 5.6% and 9.3% in data set [3] (20 mg/cc ascorbic acid); 3.6% and 5.3% and 8.6% and 8.0% and 7.6% and 6.2% and 5.5% (2×) and 6.9% and 5.1% in data set [3] (50 mg/cc ascorbic acid). Further, the “Post-op corneal ECD” value was 981 cells/mm^2 and 1239 cells/mm^2 in data set [3] (20 mg/cc ascorbic acid); 1355 cells/mm^2 and 983 cells/mm^2 and 1238 cells/mm^2 and 1119 cells/mm^2 and 1249 cells/mm^2 and 1181 cells/mm^2 and 1724 cells/mm^2 and 1112 cells/mm^2 and 1649 cells/mm^2 and 838 cells/mm^2 in data set [3] (50 mg/cc ascorbic acid).
